18 substances from patent US20220096516A1, “OLIGONUCLEOTIDE MOLECULE AND APPLICATION THEREOF IN TUMOR THERAPY” (Ractigen Therapeutics, priority 2019, published 2022) can be followed below.

d = 2'-deoxy (DNA); r = 2'-OH (RNA)

This data set deals with LHPP gene. The experiment in a line: High-throughput screening of saRNAs targeting LHPP promoter: LHPP mRNA by one-step RT-qPCR in Huh7 cells. Conditions: 10 nM saRNA, 72 hours, relative to control (Mock). Format: cell-based, human. How it is done: Human liver cancer cell line Huh7 was cultured in DMEM medium (Gibco), containing 10% of calf serum (Sigma-Aldrich) and 1% of penicillin/streptomycin (Gibco). The cells were cultured at 5% CO2 and 37° C. According to the instructions provided by the manufacturer, RNAiMax (Invitrogen, Carlsbad, Calif.) was used to transfect small activating RNAs at a concentration of 10 nM (unless otherwise specified).
At the end of transfection, the media were discarded, and each well was washed with 150 μL of PBS once. After discarding the PBS, 50 μL of cell lysis buffer (Takara) was added to each well and incubated at room temperature for 5 min. 1 μL of the resulted cell lysis was taken from each well and analyzed by qPCR on an ABI 7500 fast real-time PCR system (Applied Biosystems) using a one-step TB Green™ PrimeScrip™ RT-PCR kit II (Takara, RR086A) Each transfection sample was repeatedly amplified in 3 replicate wells.
Reaction conditions were as follows: reverse transcription reaction (stage 1): 5 min at 42° C., 10 s at 95° C.; PCR reaction (stage 2): 5 s at 95° C., 20 s at 60° C., 45 cycles of amplification. HPRT1 and TBP were used as internal reference genes. PCR primers used for amplifying LHPP, HPRT1 and TBP genes are shown in Table 2, wherein LHPP was amplified using the LHPP F1/R1 primer pair.
To calculate the relative expression level (Erel) of LHPP (target gene) in an saRNA-transfected sample relative to control treatment (Mock), the Ct values of the target gene and the two internal reference genes were substituted into formula 1
Erel=2^(CtT^m^-CtT^s^)/((2^(CtR1^m^-CtR1^s^)*2^(CtR2^m^-CtR2^s^))^(1/2))
wherein CtTm was the Ct value of the target gene from the control (Mock) sample; CtTs was the Ct value of the target gene from the saRNA-treated sample; CtR1m was the Ct value of the internal reference gene 1 from the control (Mock) sample; CtR1s was the Ct value of the internal reference gene 1 from the saRNA-treated sample; CtR2m was the Ct value of the internal reference gene 2 from the control (Mock) sample; and CtR2s was the Ct value of the internal reference gene 2 from the saRNA-treated sample.
In order to obtain saRNAs capable of activating LHPP transcription, Huh7 cells were transfected with each of the aforementioned 290 saRNAs with a transfection concentration of 10 nM, and 72 hours later, according to the same method as described above, the cells were lysed and analyzed by one-step RT-qPCR to obtain the relative (compared with the control (Mock)) expression level of LHPP gene for each saRNA-treated sample. […] The observed maximum activation and maximum inhibition is 3.46 fold and 0.49 fold, respectively, saRNAs with activating activity are referred to as activating saRNAs, and the saRNAs with inhibiting activity are referred to as inhibiting saRNAs.
A general note: In qPCR the cycle at which signal appears reflects the starting amount.

Turning to “RAG7-104: saRNA duplex; sense AAGCUUCCGAAAAGGACACTT (SEQ ID NO: 43), antisense GUGUCCUUUUCGGAAGCUUTT (SEQ ID NO: 207) (sugars from the 5' end r19 d2, backbone not given here)”, the “Fold of changes in relative LHPP mRNA expression level” value is reported as 1.41 fold and the “Fold of changes in relative LHPP mRNA expression level (log2)” value is on record as 0.50 log2.

With “RAG7-176: saRNA duplex; sense UUUGCCUUUGACCUUUCUUTT (SEQ ID NO: 110), antisense AAGAAAGGUCAAAGGCAAATT (SEQ ID NO: 274) (sugars from the 5' end r19 d2, backbone not given here)”, the “Fold of changes in relative LHPP mRNA expression level” value is 1.20 fold and the “Fold of changes in relative LHPP mRNA expression level (log2)” value worked out at 0.26 log2.

Turning to “RAG7-681: saRNA duplex; sense CCUCAUCUAUGCAGGGCUGTT (SEQ ID NO: 149), antisense CAGCCCUGCAUAGAUGAGGTT (SEQ ID NO: 313) (sugars from the 5' end r19 d2, backbone not given here)”, the “Fold of changes in relative LHPP mRNA expression level” value amounted to 1.13 fold and the “Fold of changes in relative LHPP mRNA expression level (log2)” value is reported as 0.17 log2.

As to “RAG7-94: saRNA duplex; sense AAAGGACACCGUUUCAGGGTT (SEQ ID NO: 13), antisense CCCUGAAACGGUGUCCUUUTT (SEQ ID NO: 177) (sugars from the 5' end r19 d2, backbone not given here)”, the “Fold of changes in relative LHPP mRNA expression level” value was 1.64 fold and the “Fold of changes in relative LHPP mRNA expression level (log2)” value turned out to be 0.72 log2.

For the substance “RAG7-125: saRNA duplex; sense UCCGCUGAUCUCCUGGGAATT (SEQ ID NO: 55), antisense UUCCCAGGAGAUCAGCGGATT (SEQ ID NO: 219) (sugars from the 5' end r19 d2, backbone not given here)”, the “Fold of changes in relative LHPP mRNA expression level” value stood at 1.36 fold and the “Fold of changes in relative LHPP mRNA expression level (log2)” value is recorded as 0.44 log2.

On to “RAG7-909: saRNA duplex; sense UUGAAAGCUCAAAGCUAUGTT (SEQ ID NO: 23), antisense CAUAGCUUUGAGCUUUCAATT (SEQ ID NO: 187) (sugars from the 5' end r19 d2, backbone not given here)”, for which the “Fold of changes in relative LHPP mRNA expression level” value amounted to 1.53 fold and the “Fold of changes in relative LHPP mRNA expression level (log2)” value was found to be 0.61 log2.

On to “RAG7-897: saRNA duplex; sense AGCUAUGUUGGACCAGAAGTT (SEQ ID NO: 65), antisense CUUCUGGUCCAACAUAGCUTT (SEQ ID NO: 229) (sugars from the 5' end r19 d2, backbone not given here)”, for which the “Fold of changes in relative LHPP mRNA expression level” value was determined as 1.31 fold and the “Fold of changes in relative LHPP mRNA expression level (log2)” value is recorded as 0.39 log2.

With “RAG7-196: saRNA duplex; sense CAGGUGCCUUCUUGUCUCATT (SEQ ID NO: 38), antisense UGAGACAAGAAGGCACCUGTT (SEQ ID NO: 202) (sugars from the 5' end r19 d2, backbone not given here)”, the “Fold of changes in relative LHPP mRNA expression level” value was determined as 1.45 fold and the “Fold of changes in relative LHPP mRNA expression level (log2)” value was 0.54 log2.

Take “RAG7-169: saRNA duplex; sense UUGACCUUUCUUAGGGACUTT (SEQ ID NO: 61), antisense AGUCCCUAAGAAAGGUCAATT (SEQ ID NO: 225) (sugars from the 5' end r19 d2, backbone not given here)”: the “Fold of changes in relative LHPP mRNA expression level” value is listed as 1.34 fold and the “Fold of changes in relative LHPP mRNA expression level (log2)” value turned out to be 0.42 log2.

“RAG7-905: saRNA duplex; sense AAGCUCAAAGCUAUGUUGGTT (SEQ ID NO: 92), antisense CCAACAUAGCUUUGAGCUUTT (SEQ ID NO: 256) (sugars from the 5' end r19 d2, backbone not given here)”: the “Fold of changes in relative LHPP mRNA expression level” value is 1.24 fold and the “Fold of changes in relative LHPP mRNA expression level (log2)” value came out at 0.31 log2.

As to “RAG7-111: saRNA duplex; sense GGGAAGAAAGCUUCCGAAATT (SEQ ID NO: 117), antisense UUUCGGAAGCUUUCUUCCCTT (SEQ ID NO: 281) (sugars from the 5' end r19 d2, backbone not given here)”, the “Fold of changes in relative LHPP mRNA expression level” value was 1.18 fold and the “Fold of changes in relative LHPP mRNA expression level (log2)” value was determined as 0.24 log2.

As for “RAG7-151: saRNA duplex; sense UUGUUUUCUGCUUUUCCUGTT (SEQ ID NO: 100), antisense CAGGAAAAGCAGAAAACAATT (SEQ ID NO: 264) (sugars from the 5' end r19 d2, backbone not given here)”, the “Fold of changes in relative LHPP mRNA expression level” value is 1.22 fold and the “Fold of changes in relative LHPP mRNA expression level (log2)” value was 0.28 log2.

Turning to “RAG7-175: saRNA duplex; sense UUGCCUUUGACCUUUCUUATT (SEQ ID NO: 60), antisense UAAGAAAGGUCAAAGGCAATT (SEQ ID NO: 224) (sugars from the 5' end r19 d2, backbone not given here)”, the “Fold of changes in relative LHPP mRNA expression level” value is 1.34 fold and the “Fold of changes in relative LHPP mRNA expression level (log2)” value was 0.42 log2.

“RAG7-184: saRNA duplex; sense UGUCUCAAUUUGCCUUUGATT (SEQ ID NO: 16), antisense UCAAAGGCAAAUUGAGACATT (SEQ ID NO: 180) (sugars from the 5' end r19 d2, backbone not given here)”: the “Fold of changes in relative LHPP mRNA expression level” value turned out to be 1.59 fold and the “Fold of changes in relative LHPP mRNA expression level (log2)” value was 0.67 log2.

For “RAG7-898: saRNA duplex; sense AAGCUAUGUUGGACCAGAATT (SEQ ID NO: 59), antisense UUCUGGUCCAACAUAGCUUTT (SEQ ID NO: 223) (sugars from the 5' end r19 d2, backbone not given here)”, the “Fold of changes in relative LHPP mRNA expression level” value stood at 1.34 fold and the “Fold of changes in relative LHPP mRNA expression level (log2)” value is 0.43 log2.

As for “RAG7-884: saRNA duplex; sense CAGAAGUAAAGUGUUCUCGTT (SEQ ID NO: 101), antisense CGAGAACACUUUACUUCUGTT (SEQ ID NO: 265) (sugars from the 5' end r19 d2, backbone not given here)”, the “Fold of changes in relative LHPP mRNA expression level” value stood at 1.22 fold and the “Fold of changes in relative LHPP mRNA expression level (log2)” value is recorded as 0.28 log2.

As for “RAG7-887: saRNA duplex; sense GACCAGAAGUAAAGUGUUCTT (SEQ ID NO: 51), antisense GAACACUUUACUUCUGGUCTT (SEQ ID NO: 215) (sugars from the 5' end r19 d2, backbone not given here)”, the “Fold of changes in relative LHPP mRNA expression level” value is reported as 1.37 fold and the “Fold of changes in relative LHPP mRNA expression level (log2)” value is recorded as 0.46 log2.

As for “RAG7-112: saRNA duplex; sense UGGGAAGAAAGCUUCCGAATT (SEQ ID NO: 82), antisense UUCGGAAGCUUUCUUCCCATT (SEQ ID NO: 246) (sugars from the 5' end r19 d2, backbone not given here)”, the “Fold of changes in relative LHPP mRNA expression level” value is listed as 1.26 fold and the “Fold of changes in relative LHPP mRNA expression level (log2)” value was found to be 0.33 log2.
